Measurements published in the NIST ThermoML archive (doi:10.1016/j.tca.2013.08.002).
± gives the expanded uncertainty stated by the source.

Assay: mn = molality of the nth substance listed, in mol/kg
Details: 101 kPa, Liquid; for speed of sound: Frequency=1.999 MHz, Sing-around technique in a fixed-path interferometer; for mass density: Vibrating tube method

C[N+](C)(C)CC(=O)[O-] [(trimethylammonio)acetate] + O
Details	mass density [kg/m3]	speed of sound [m/s]
288.15 K, m1 = 0.0482	1000.1 ± 2	1471.1 ± 10
288.15 K, m1 = 0.1063	1001.2 ± 2	1477.4 ± 10
288.15 K, m1 = 0.5027	1008.5 ± 2	1517.6 ± 10
288.15 K, m1 = 1.002	1016.8 ± 2	1562.8 ± 10
288.15 K, m1 = 1.504	1024.3 ± 2	1599.7 ± 10
288.15 K, m1 = 2.005	1030.9 ± 2	1628.1 ± 10
288.15 K, m1 = 2.519	1036.6 ± 2	1648.9 ± 10
288.15 K, m1 = 3.008	1041.8 ± 2	1658.3 ± 10
293.15 K, m1 = 0.0482	999.1 ± 2	1487.7 ± 10
293.15 K, m1 = 0.1063	1000.2 ± 2	1493.8 ± 10
293.15 K, m1 = 0.5027	1007.2 ± 2	1535.4 ± 10
293.15 K, m1 = 1.002	1015.1 ± 2	1580.7 ± 10
293.15 K, m1 = 1.504	1022.1 ± 2	1619.5 ± 10
293.15 K, m1 = 2.005	1028.1 ± 2	1649.8 ± 10
293.15 K, m1 = 2.519	1033.6 ± 2	1670.4 ± 10
293.15 K, m1 = 3.008	1038.5 ± 2	1680.1 ± 10
298.15 K, m1 = 0.0482	997.9 ± 2	1501.6 ± 10
298.15 K, m1 = 0.1063	998.9 ± 2	1507.6 ± 10
298.15 K, m1 = 0.5027	1005.6 ± 2	1547.2 ± 10
298.15 K, m1 = 1.002	1013.1 ± 2	1593.1 ± 10
298.15 K, m1 = 1.504	1019.9 ± 2	1630 ± 10
298.15 K, m1 = 2.005	1025.8 ± 2	1656.8 ± 10
298.15 K, m1 = 2.519	1031 ± 2	1674.5 ± 10
298.15 K, m1 = 3.008	1035.4 ± 2	1698.9 ± 10
303.15 K, m1 = 0.0482	996.6 ± 2	1514.1 ± 10
303.15 K, m1 = 0.1063	997.6 ± 2	1520 ± 10
303.15 K, m1 = 0.5027	1004.2 ± 2	1558.6 ± 10
303.15 K, m1 = 1.002	1011.6 ± 2	1602.3 ± 10
303.15 K, m1 = 1.504	1018 ± 2	1639.6 ± 10
303.15 K, m1 = 2.005	1023.5 ± 2	1669.8 ± 10
303.15 K, m1 = 2.519	1028.4 ± 2	1689.7 ± 10
303.15 K, m1 = 3.008	1032.8 ± 2	1715.2 ± 10
308.15 K, m1 = 0.0482	994.9 ± 2	1524.2 ± 10
308.15 K, m1 = 0.1063	995.9 ± 2	1529.9 ± 10
308.15 K, m1 = 0.5027	1002.5 ± 2	1567.5 ± 10
308.15 K, m1 = 1.002	1009.9 ± 2	1610.2 ± 10
308.15 K, m1 = 1.504	1016.4 ± 2	1648.1 ± 10
308.15 K, m1 = 2.005	1022 ± 2	1679.8 ± 10
308.15 K, m1 = 2.519	1027.1 ± 2	1700 ± 10
308.15 K, m1 = 3.008	1031.2 ± 2	1726.5 ± 10
313.15 K, m1 = 0.0482	993.1 ± 2	1533.4 ± 10
313.15 K, m1 = 0.1063	994.1 ± 2	1538.8 ± 10
313.15 K, m1 = 0.5027	1000.7 ± 2	1574.2 ± 10
313.15 K, m1 = 1.002	1007.9 ± 2	1615.7 ± 10
313.15 K, m1 = 1.504	1014.4 ± 2	1652.3 ± 10
313.15 K, m1 = 2.005	1019.9 ± 2	1682.8 ± 10
313.15 K, m1 = 2.519	1025 ± 2	1705.9 ± 10
313.15 K, m1 = 3.008	1029.1 ± 2	1737.1 ± 10
318.15 K, m1 = 0.0482	991.1 ± 2	1540.8 ± 10
318.15 K, m1 = 0.1063	992.1 ± 2	1546 ± 10
318.15 K, m1 = 0.5027	998.7 ± 2	1580.3 ± 10
318.15 K, m1 = 1.002	1006 ± 2	1620.9 ± 10
318.15 K, m1 = 1.504	1012.4 ± 2	1656.7 ± 10
318.15 K, m1 = 2.005	1018 ± 2	1688.3 ± 10
318.15 K, m1 = 2.519	1022.8 ± 2	1713.8 ± 10
318.15 K, m1 = 3.008	1027.3 ± 2	1743.7 ± 10
